Results from patent US9956204B2, “Composition for exterminating scuticociliates in fish including mebendazole” (NATIONAL INSTITUTE OF FISHERIES SCIENCE, priority 2016, dated 2018).

Tests used:
[1] = tested on: scuticociliates; test: Scuticociliates extermination effect of candidate substances in MEM medium; format: cell-based; conditions: MEM medium
Procedure: CHSE-214 cell line into which scuticociliates were inoculated was cultured in advance. The CHSE-214 cell line was cultured in an incubator using an MEM medium at 22° C. Scuticociliates inoculated into the cell line proliferated for 3 days by which the number reaches to be capable of analyzing in vitro anti-scuticociliates effect. Scuticociliates that feed on the cell line and sufficiently grow were mixed with the candidate substance and the activity of scuticociliates was measured.
In order to analyze the antiparasitic activity of the above 19 types of candidate substances of scuticociliates extermination drugs, scuticociliates were cultured for 3 days, and 100 μl (1×10^5) was dispensed into each well of 96 wells. The candidate substances were diluted by each concentration and the final volume was dispensed into 100 μl. Thereafter, the two were mixed and finally made into 200 μl.

[2] = tested on: scuticociliates; test: Scuticociliates extermination effect of candidate substances in seawater medium; format: cell-based; conditions: seawater medium, 4 hour
Procedure: For this, scuticociliates were cultured in CHSE-214 cell line (using MEM medium), and then scuticociliates were collected and centrifuged with sterilized seawater or artificial seawater (20‰) to replace them with a seawater medium. Each of 100 μl (1×10^5) was dispensed into each well of 96 wells, followed by further culture for 30 minutes. The candidate substances diluted in seawater to have a volume of 100 μl per each concentration were mixed with scuticociliates to have the final volume of 200 μl and cultured for 4 hour.

| SMILES | Survival or Death of scuticociliates (activity and shape, microscope) ([1]; Dosage 500 ppm) | Survival or Death of scuticociliates (activity and shape, microscope) ([1]; Dosage 600 ppm) | Survival or Death of scuticociliates (activity and shape, microscope) ([1]; Dosage 700 ppm) | Survival or Death of scuticociliates (activity and shape, microscope) ([1]; Dosage 800 ppm) | Survival or Death of scuticociliates (activity and shape, microscope) ([1]; Dosage 900 ppm) | Survival or Death of scuticociliates (activity and shape, microscope) ([1]; Dosage 1000 ppm) | Survival or Death of scuticociliates (activity and shape, microscope) ([1]; Dosage 2000 ppm) | Survival or Death of scuticociliates (activity and shape, microscope) ([2]; Dosage 500 ppm) | Survival or Death of scuticociliates (activity and shape, microscope) ([2]; Dosage 1000 ppm) | Survival or Death of scuticociliates (activity and shape, microscope) ([2]; Dosage 1500 ppm) | Survival or Death of scuticociliates (activity and shape, microscope) ([2]; Dosage 2000 ppm) | Survival or Death of scuticociliates (activity and shape, microscope) ([2]; Dosage 2500 ppm) | Survival or Death of scuticociliates (activity and shape, microscope) ([1]; Dosage 1500 ppm) | Survival or Death of scuticociliates (activity and shape, microscope) ([1]; Dosage 2500 ppm) | Survival or Death of scuticociliates (activity and shape, microscope) ([1]; Dosage 3000 ppm) | Survival or Death of scuticociliates (activity and shape, microscope) ([1]; Dosage 3500 ppm) | Survival or Death of scuticociliates (activity and shape, microscope) ([1]; Dosage 4000 ppm) | Survival or Death of scuticociliates (activity and shape, microscope) ([2]; Dosage 3000 ppm) | Survival or Death of scuticociliates (activity and shape, microscope) ([2]; Dosage 3500 ppm) | Survival or Death of scuticociliates (activity and shape, microscope) ([2]; Dosage 4000 ppm) | further results |
| --- | --- | --- | --- | --- | --- | --- | --- | --- | --- | --- | --- | --- | --- | --- | --- | --- | --- | --- | --- | --- | --- |
| O=[N+]([O-])NC1=NCCN1Cc1ccc(Cl)nc1 [Imidacloprid] | Survival | Survival | Survival | Survival | Δ | Δ | Death | Survival | Δ | Death | Death | Death |  |  |  |  |  |  |  |  | Survival or Death of scuticociliates (activity and shape, microscope) ([1]; Dosage 5000 ppm): Death; Survival or Death of scuticociliates (activity and shape, microscope) ([2]; Dosage 1200 ppm): Δ; Survival or Death of scuticociliates (activity and shape, microscope) ([2]; Dosage 1400 ppm): Death |
| CC[C@H](C)[C@H]1O[C@]2(CC[C@@H]1C)C[C@@H]1C[C@@H](C/C=C(\C)[C@@H](O[C@H]3C[C@H](OC)[C@@H](O[C@H]4C[C@H](OC)[C@@H](O)[C@H](C)O4)[C@H](C)O3)[C@@H](C)/C=C/C=C3\CO[C@@H]4[C@H](O)C(C)=C[C@@H](C(=O)O1)[C@]34O)O2 [Ivermectin] | Survival |  |  |  |  | Survival | Survival | Survival | Survival | Survival | Survival | Survival | Survival | Survival | Survival | Survival | Survival | Survival | Survival | Survival |  |
| c1ccc([C@H]2CN3CCSC3=N2)cc1 [Levamisol] | Survival |  |  |  |  | Survival | Survival | Survival | Survival | Survival | Survival | Survival | Survival | Survival | Survival | Survival | Survival | Survival | Survival | Survival |  |
| COC(=O)Nc1nc2ccc([S+]([O-])c3ccccc3)cc2[nH]1 (stereo not shown) [Oxfendazole] | Survival | Survival | Δ | Δ | Δ | Death |  | Survival | Death |  |  |  |  |  |  |  |  |  |  |  | Survival or Death of scuticociliates (activity and shape, microscope) ([1]; Dosage 10 ppm): Survival; Survival or Death of scuticociliates (activity and shape, microscope) ([1]; Dosage 50 ppm): Survival; Survival or Death of scuticociliates (activity and shape, microscope) ([1]; Dosage 100 ppm): Survival; Survival or Death of scuticociliates (activity and shape, microscope) ([1]; Dosage 200 ppm): Survival; Survival or Death of scuticociliates (activity and shape, microscope) ([1]; Dosage 300 ppm): Survival; Survival or Death of scuticociliates (activity and shape, microscope) ([1]; Dosage 400 ppm): Survival; Survival or Death of scuticociliates (activity and shape, microscope) ([2]; Dosage 10 ppm): Survival; Survival or Death of scuticociliates (activity and shape, microscope) ([2]; Dosage 50 ppm): Survival; Survival or Death of scuticociliates (activity and shape, microscope) ([2]; Dosage 100 ppm): Survival; Survival or Death of scuticociliates (activity and shape, microscope) ([2]; Dosage 200 ppm): Survival; Survival or Death of scuticociliates (activity and shape, microscope) ([2]; Dosage 300 ppm): Survival; Survival or Death of scuticociliates (activity and shape, microscope) ([2]; Dosage 400 ppm): Survival; Survival or Death of scuticociliates (activity and shape, microscope) ([2]; Dosage 600 ppm): Survival; Survival or Death of scuticociliates (activity and shape, microscope) ([2]; Dosage 700 ppm): Δ; Survival or Death of scuticociliates (activity and shape, microscope) ([2]; Dosage 800 ppm): Δ; Survival or Death of scuticociliates (activity and shape, microscope) ([2]; Dosage 900 ppm): Δ |
| CCCOc1ccc2nc(NC(=O)OC)[nH]c2c1 [Oxibendazole] | Survival |  |  |  |  | Survival | Δ | Survival | Survival | Δ | Δ | Δ | Δ | Death | Death | Death | Death | Δ | Death | Death |  |
| C1CNCCN1 [Piperazine] | Survival |  |  |  |  | Survival | Survival | Survival | Survival | Survival | Survival | Survival | Survival | Survival | Survival | Survival | Survival | Survival | Survival | Survival |  |
